In publication PMC8733726, “Dioctanoyl Ultrashort Tetrabasic β-Peptides Sensitize Multidrug-Resistant Gram-Negative Bacteria to Novobiocin and Rifampicin” (Frontiers in Microbiology, 2021):
≈ marks a conversion by molar mass, not a printed value. Read-outs that look alike come from different tables or passages of the source.

Legend:
[1] = system: MDR clinical isolates of A. baumannii; type: cell-based, Acinetobacter baumannii; settings: MDR clinical isolates of, 18 h
Experimental: (§1) The adjuvant activities of dUSTBβPs were evaluated using checkerboard assay as previously described ([Berry et al., 2019]). Overnight-grown bacterial culture diluted in saline to 0.5 McFarland turbidity was successively diluted 1:50 in MHB to achieve a final concentration of 5 × 10^5 CFU/mL for inoculation. The antibiotic and adjuvant were serially diluted 2-fold along the x-axis and y-axis, respectively, resulting in varying concentrations of both agents in each well. Subsequently, the 96-well plate was incubated with equal volumes of bacterial inoculum at 37°C for 18 h. Confirmation of turbidity was done using an EMax Plus microplate reader (Molecular Devices, United States) at a wavelength of 590 nm. Wells comprising MHB alone or in the presence of bacterial cells were used as negative or positive controls, respectively. Fractional inhibitory concentration index (FICI) is determined by adding the FICs of both antibiotic and adjuvant. The FIC of the antibiotic is calculated by dividing the MIC of the antibiotic in the presence of the adjuvant by the MIC of the antibiotic alone. Similarly, the FIC of the adjuvant is calculated by dividing the MIC of the adjuvant in the presence of the antibiotic by the MIC of the adjuvant alone. FICI ≤ 0.5, 0.5 < x ≤ 4, and >4 were deemed synergistic, additive, and antagonistic, respectively ([Meletiadis et al., 2010]).

in vitro = settings: human, plasma
Experimental: Stability of dUSTBβP 3 was evaluated in human plasma. […] The supernatant was analyzed by HPLC-tandem mass spectrometry using selected reaction monitoring. The % compound remaining was determined by comparing peak areas at different time points to time zero. Assuming first-order kinetics, the half-life was extrapolated from the slope of the initial linear range of the logarithmic curve of compound remaining over time. Experiments were performed in duplicates, and the reference compounds include propantheline and propoxycaine.

[2] = system: wild-type P. aeruginosa PAO1; assay: microbe, parasite or virus in culture; type: cell-based, Pseudomonas aeruginosa; settings: PAO1; for MICcombo: antibiotic with dUSTBβP 3 at 8 μg/mL; for MIC: Pseudomonas aeruginosa, 18 h, antibiotic alone (Supplementary Table 7), read-out: MICantibiotic
Text: as §1, with “Overnight-grown” for “The adjuvant activities of dUSTBβPs were evaluated using checkerboard assay as previously described ([Berry et al., 2019]). Overnight-grown”, “Subsequently, the 96-well plate was incubated with equal volumes of bacterial inoculum at 37°C for 18 h.” left out, “alone.” for “alone. FICI ≤ 0.5, 0.5 < x ≤ 4, and >4 were deemed synergistic, additive, and antagonistic, respectively ([Meletiadis et al., 2010]).”

[3] = system: wild-type A. baumannii ATCC 17978; assay: Checkerboard assay; type: cell-based, Acinetobacter baumannii; settings: ATCC 17978; for MICcombo: antibiotic with dUSTBβP 3 at 8 μg/mL; for MIC: Acinetobacter baumannii, ATCC17978, 18 h, antibiotic alone (Supplementary Table 7), read-out: MICantibiotic
Text: as §1, with “Overnight-grown” for “The adjuvant activities of dUSTBβPs were evaluated using checkerboard assay as previously described ([Berry et al., 2019]). Overnight-grown”, “Subsequently, the 96-well plate was incubated with equal volumes of bacterial inoculum at 37°C for 18 h.” left out, “alone.” for “alone. FICI ≤ 0.5, 0.5 < x ≤ 4, and >4 were deemed synergistic, additive, and antagonistic, respectively ([Meletiadis et al., 2010]).”

[4] = system: wild-type E. coli ATCC 25922; assay: microbe, parasite or virus in culture; type: cell-based, Escherichia coli; settings: ATCC 25922; for MICcombo: antibiotic with dUSTBβP 3 at 8 μg/mL; for MIC: Escherichia coli, ATCC25922, 18 h, antibiotic alone (Supplementary Table 7), read-out: MICantibiotic
Experimental: as §1

[5] = system: MDR P. aeruginosa clinical isolates; assay: Resistance phenotype (MICs of antibiotics) of MDR clinical isolates; type: cell-based, Pseudomonas aeruginosa; settings: Pseudomonas aeruginosa
[6] = system: MDR A. baumannii clinical isolates; assay: as above; type: cell-based, Acinetobacter baumannii; settings: Acinetobacter baumannii
[7] = system: MDR E. coli clinical isolates; assay: as above; type: cell-based, Escherichia coli; settings: Escherichia coli, read-out: MIC
[8] = system: MDR K. pneumoniae clinical isolates; assay: as above; type: cell-based, Klebsiella pneumoniae; settings: Klebsiella pneumoniae, read-out: MIC
[9] = system: MDR E. cloacae clinical isolates; assay: as above; type: cell-based, Enterobacter cloacae; settings: Enterobacter cloacae, read-out: MIC

SMILES | MICcombo [2] | MIC [2] | MICcombo [3] | MIC [3] | MICcombo [4] | MIC [4] | MIC ([5]; 262-101856, read-out: MIC) | MIC ([6]; LAC-4, read-out: MIC) | MIC ([7]; 94393 (mcr-1 +)) | MIC ([7]; 94474 (mcr-1 +)) | MIC [7]; 107115 | MIC [8]; 113250 | MIC [8]; 113254 | MIC [8]; 116381 | MIC [9]; 117029 | MIC [9]; 118564 | MIC [9]; 121187 | MIC ([5]; 259-96196, read-out: MIC) | MIC ([5]; 264-104354, read-out: MIC) | MIC ([5]; 91433, read-out: MIC) | further results
CCCCCCCC(=O)N[C@@H](CCCNC(=N)N)C(=O)NCCCN(CCCNC(=O)[C@H](CCCNC(=N)N)NC(=O)CCCCCCC)CC(=O)N[C@@H](CCCNC(=N)N)C(N)=O [di(C8-Arg)-Nbap-Arg-NH2] | – | – | – | – | – | – | – | – | – | – | – | – | – | – | – | – | – | – | – | – | MIC of compound alone [1]: 16 µg/mL; remaining at 2 h, 1 μM (in vitro): 39.5 ± 7.4%
CC(C)(O/N=C(\C(=O)N[C@@H]1C(=O)N2C(C(=O)[O-])=C(C[n+]3ccccc3)CS[C@H]12)c1csc(N)n1)C(=O)O [Ceftazidime] | 2 µg/mL | 2 µg/mL (≈ 3.66 µM) | 8 µg/mL | 16 µg/mL | 0.063 µg/mL | 0.25 µg/mL | 16 µg/mL (≈ 29.3 µM) | > 16 µg/mL | ≤ 0.25 µg/mL | 0.5 µg/mL (≈ 0.915 µM) | > 32 µg/mL | 0.5 µg/mL (≈ 0.915 µM) | ≤ 0.2 µg/mL | 8 µg/mL (≈ 14.6 µM) | 0.5 µg/mL (≈ 0.915 µM) | 0.5 µg/mL (≈ 0.915 µM) | 0.5 µg/mL (≈ 0.915 µM) | – | – | – | MIC ([5]; 259-96196): 512 µg/mL (≈ 937 µM); MIC ([5]; 264-104354): 128 µg/mL (≈ 234 µM); MIC [5]; 91433: 1020 µg/mL (≈ 1870 µM); MIC ([5]; 114228, read-out: MIC): 8 µg/mL (≈ 14.6 µM)
CN(C)c1ccc(O)c2c1C[C@H]1C[C@H]3[C@H](N(C)C)C(O)=C(C(N)=O)C(=O)[C@@]3(O)C(O)=C1C2=O [Minocycline] | 1 µg/mL | 16 µg/mL (≈ 35 µM) | 0.25 µg/mL | 0.5 µg/mL | 0.063 µg/mL | 0.5 µg/mL | 64 µg/mL (≈ 140 µM) | 4 µg/mL (≈ 8.74 µM) | 2 µg/mL (≈ 4.37 µM) | 64 µg/mL (≈ 140 µM) | 32 µg/mL (≈ 69.9 µM) | 2 µg/mL (≈ 4.37 µM) | 2 µg/mL (≈ 4.37 µM) | 64 µg/mL (≈ 140 µM) | 32 µg/mL (≈ 69.9 µM) | – | – | 32 µg/mL (≈ 69.9 µM) | 32 µg/mL (≈ 69.9 µM) | 16 µg/mL (≈ 35 µM) | MIC ([5]; 114228, read-out: MIC): 32 µg/mL (≈ 69.9 µM); MIC [6]: 0.125 µg/mL (≈ 0.273 µM); MIC ([6]; 110193, read-out: MIC): 1 µg/mL (≈ 2.19 µM); MIC ([6]; AB027, read-out: MIC): 0.25 µg/mL (≈ 0.546 µM); MIC ([6]; AB031, read-out: MIC): 0.25 µg/mL (≈ 0.546 µM)
C[C@H]1c2cccc(O)c2C(=O)C2=C(O)[C@]3(O)C(=O)C(C(N)=O)=C(O)[C@@H](N(C)C)[C@@H]3[C@@H](O)[C@@H]21 [Doxycycline] | 0.5 µg/mL | 8 µg/mL (≈ 18 µM) | 0.25 µg/mL | 0.25 µg/mL | 0.25 µg/mL | 1 µg/mL | 1020 µg/mL (≈ 2300 µM) | < 4 µg/mL | 4 µg/mL (≈ 9 µM) | > 32 µg/mL | > 32 µg/mL | 2 µg/mL (≈ 4.5 µM) | 128 µg/mL (≈ 288 µM) | 1 µg/mL (≈ 2.25 µM) | > 32 µg/mL | 4 µg/mL (≈ 9 µM) | > 32 µg/mL | 32 µg/mL (≈ 72 µM) | 64 µg/mL (≈ 144 µM) | 32 µg/mL (≈ 72 µM) | MIC ([5]; 114228, read-out: MIC): 16 µg/mL (≈ 36 µM)
COc1c(N2C[C@@H]3CCCN[C@@H]3C2)c(F)cc2c(=O)c(C(=O)O)cn(C3CC3)c12 [Moxifloxacin] | 0.5 µg/mL | 2 µg/mL (≈ 4.98 µM) | > 0.125 µg/mL | > 0.125 µg/mL | 0.001 µg/mL | 0.016 µg/mL | > 16 µg/mL | – | 1 µg/mL (≈ 2.49 µM) | 16 µg/mL (≈ 39.9 µM) | 16 µg/mL (≈ 39.9 µM) | ≤ 0.06 µg/mL | ≤ 0.06 µg/mL | > 16 µg/mL | ≤ 0.06 µg/mL | 0.12 µg/mL (≈ 0.299 µM) | 1 µg/mL (≈ 2.49 µM) | > 16 µg/mL | > 16 µg/mL | 16 µg/mL (≈ 39.9 µM) | MIC ([6]; 110193, read-out: MIC): ≤ 1 µg/mL; MIC ([6]; AB027, read-out: MIC): 8 µg/mL (≈ 19.9 µM); MIC ([6]; AB031, read-out: MIC): 0.12 µg/mL (≈ 0.299 µM)
O=C(N[C@H](CO)[C@H](O)c1ccc([N+](=O)[O-])cc1)C(Cl)Cl [Chloramphenicol] | 2 µg/mL | 32 µg/mL (≈ 99 µM) | 64 µg/mL | 128 µg/mL | 1 µg/mL | 2 µg/mL | 2050 µg/mL (≈ 6340 µM) | 32 µg/mL (≈ 99 µM) | 4 µg/mL (≈ 12.4 µM) | 4 µg/mL (≈ 12.4 µM) | 512 µg/mL (≈ 1580 µM) | 4 µg/mL (≈ 12.4 µM) | 2 µg/mL (≈ 6.19 µM) | > 512 µg/mL | 8 µg/mL (≈ 24.8 µM) | – | – | – | 4100 µg/mL (≈ 12700 µM) | 8 µg/mL (≈ 24.8 µM) | MIC ([5]; 259-96196): 1020 µg/mL (≈ 3170 µM); MIC ([6]; 110193, read-out: MIC): 128 µg/mL (≈ 396 µM); MIC ([6]; AB027, read-out: MIC): 128 µg/mL (≈ 396 µM); MIC ([6]; AB031, read-out: MIC): 128 µg/mL (≈ 396 µM)
CNC(C)C1CCC(N)C(OC2C(N)CC(N)C(OC3OCC(C)(O)C(NC)C3O)C2O)O1 (stereo not drawn) [Gentamicin] | 2 µg/mL | 2 µg/mL (≈ 4.19 µM) | > 1 µg/mL | > 1 µg/mL | 1 µg/mL | 2 µg/mL | > 32 µg/mL | > 4 µg/mL | ≤ 0.5 µg/mL | 16 µg/mL (≈ 33.5 µM) | > 32 µg/mL | ≤ 0.5 µg/mL | ≤ 0.5 µg/mL | ≤ 0.5 µg/mL | ≤ 0.5 µg/mL | 1 µg/mL (≈ 2.09 µM) | > 32 µg/mL | > 32 µg/mL | > 32 µg/mL | 32 µg/mL (≈ 67 µM) | MIC ([6]; AB027, read-out: MIC): 32 µg/mL (≈ 67 µM); MIC ([6]; AB031, read-out: MIC): < 0.5 µg/mL
